Measured values reported in the NIST ThermoML archive (doi:10.1016/j.jct.2016.10.013).
± gives the expanded uncertainty stated by the source.

Experiments:
[1] = refractive index (Na D-line) (dimensionless); details: 293.15 K; 101.33 kPa; Liquid; Standard Abbe refractometry
[2] = activity coefficient (dimensionless); of the first substance listed, at infinite dilution; xn = mol fraction of the nth substance listed; details: 101.33 kPa, Liquid, Chromatography, x1 = 0
[3] = 288.15 K; 101.33 kPa; Liquid; Vibrating tube method

Row | SMILES | refractive index [1] | activity coefficient ([2]; 303.15 K) | activity coefficient ([2]; 313.15 K) | activity coefficient ([2]; 323.15 K) | activity coefficient ([2]; 304.15 K) | mass density [3] [kg/m3]
1 | OCCO [1,2-ethanediol] | 1.4319 ± 0.0004 | – | – | – | – | –
2 | C=CCCCCC [1-heptene] + OCCO | – | 570 ± 26 | 503 ± 23 | 452 ± 20 | – | –
3 | C=CCCCCC [1-heptene] + OCCOCCO | – | – | 77.8 ± 3.5 | 73.4 ± 3.3 | 84 ± 3.8 | –
4 | C=CCCCCCCC [1-nonene] + OCCO | – | 1610 ± 73 | 1300 ± 59 | 1170 ± 53 | – | –
5 | C=CCCCCCCC [1-nonene] + OCCOCCO | – | – | 174 ± 8 | 159 ± 7 | 188 ± 8 | –
6 | C1CCCCC1 [cyclohexane] + OCCO | – | 270 ± 12 | 238 ± 11 | 212 ± 10 | – | –
7 | C1CCCCC1 [cyclohexane] + OCCOCCO | – | – | 46.7 ± 2.1 | 43.5 ± 1.9 | 50.6 ± 2.3 | –
8 | C1CCCC1 [cyclopentane] + OCCO | – | 163 ± 7 | 149 ± 7 | 133 ± 6 | – | –
9 | C1CCCC1 [cyclopentane] + OCCOCCO | – | – | 31.6 ± 1.4 | 30.1 ± 1.3 | 33.8 ± 1.5 | –
10 | OCCOCCO [diethylene glycol] | 1.4472 ± 0.0004 | – | – | – | – | 1120.3 ± 2
11 | CCCCCCC [heptane] + OCCO | – | 1200 ± 54 | 1030 ± 47 | 860 ± 39 | – | –
12 | CCCCCCC [heptane] + OCCOCCO | – | – | 151 ± 7 | 140 ± 6 | 174 ± 8 | –
13 | C=CCCCC [hex-1-ene] + OCCO | – | 330 ± 15 | 298 ± 13 | 272 ± 12 | – | –
14 | C=CCCCC [hex-1-ene] + OCCOCCO | – | – | 52.4 ± 2.3 | 50.2 ± 2.2 | 56.3 ± 2.5 | –
15 | CCCCCC [hexane] + OCCO | – | 716 ± 32 | 620 ± 28 | 543 ± 25 | – | –
16 | CCCCCC [hexane] + OCCOCCO | – | – | 102 ± 5 | 94.2 ± 4.2 | 112 ± 5 | –
17 | CC1CCCCC1 [methylcyclohexane] + OCCO | – | 473 ± 21 | 407 ± 18 | 370 ± 17 | – | –
18 | CC1CCCCC1 [methylcyclohexane] + OCCOCCO | – | – | 71.1 ± 4.9 | 66 ± 4.5 | 77.2 ± 5.3 | –
19 | CCCCCCCCC [nonane] + OCCO | – | 2960 ± 140 | 2320 ± 110 | 1970 ± 90 | – | –
20 | CCCCCCCCC [nonane] + OCCOCCO | – | – | 329 ± 15 | 295 ± 13 | 371 ± 17 | –
21 | C=CCCCCCC [oct-1-ene] + OCCO | – | 962 ± 44 | 819 ± 37 | 736 ± 33 | – | –
22 | C=CCCCCCC [oct-1-ene] + OCCOCCO | – | – | 116 ± 5 | 108 ± 5 | 126 ± 6 | –
23 | CCCCCCCC [octane] + OCCO | – | 1960 ± 89 | 1600 ± 73 | 1340 ± 61 | – | –
24 | CCCCCCCC [octane] + OCCOCCO | – | – | 223 ± 10 | 203 ± 9 | 249 ± 11 | –
25 | CCCCC [pentane] + OCCO | – | 436 ± 20 | 389 ± 18 | 338 ± 15 | – | –
26 | CCCCC [pentane] + OCCOCCO | – | – | 70.5 ± 3.1 | 66.4 ± 3 | 74.1 ± 3.3 | –
